IC50 data for 27 compounds are collected here from patent US7704995B2 (Exelixis, Inc., priority 2003, dated 2010).

The assay has as its target T1, Chk1 (Homo sapiens, UniProt O14757).
T1 construct: purchased Upstate Biotechnology
T1 sequence (O14757 1-476): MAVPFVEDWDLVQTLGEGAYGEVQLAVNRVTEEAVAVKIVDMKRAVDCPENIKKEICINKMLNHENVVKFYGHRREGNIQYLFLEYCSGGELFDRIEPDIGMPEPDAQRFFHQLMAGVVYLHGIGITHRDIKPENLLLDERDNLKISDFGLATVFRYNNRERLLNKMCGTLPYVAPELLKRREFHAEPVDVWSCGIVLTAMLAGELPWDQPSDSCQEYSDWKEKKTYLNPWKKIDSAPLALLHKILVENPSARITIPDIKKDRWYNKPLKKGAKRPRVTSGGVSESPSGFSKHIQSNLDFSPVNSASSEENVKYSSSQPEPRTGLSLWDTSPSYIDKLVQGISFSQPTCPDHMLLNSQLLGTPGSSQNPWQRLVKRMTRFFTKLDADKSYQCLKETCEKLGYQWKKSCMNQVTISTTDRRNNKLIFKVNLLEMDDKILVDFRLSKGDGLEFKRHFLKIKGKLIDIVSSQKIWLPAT
Description: Chk1 kinase assay: incorporation of γ-33P ATP into immobilized myelin basic protein. The format is biochemical. As to conditions: Table 11; Chk1 only; read-out: Chk1 IC50. In outline:
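Immobilized-MBP radiometric kinase assay, room temperature for 1 h; ATP 10 μM (Chk1, 10 nM enzyme) or 30 μM (Chk2, 20 nM enzyme) with 33P tracer. Values are IC50s, with Ki derived from them.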

Each structure is given as a SMILES string.

One may read the IC50 as the midpoint of a concentration-inhibition curve. On to `Cc1nc(-c2nc(-c3cccc(C(=O)NCc4ccccc4)c3)cnc2N)nn1-c1ccccn1` [Example 702, 3-[5-amino-6-(5-methyl-1-pyridin-2-yl-1H-1,2,4-triazol-3-yl)pyrazin-2-yl]-N-(phenylmethyl)benzamide], for which the 50% inhibitory concentration (IC50) was in the range of 1 to 10 µM.

Regarding `Nc1ncc(-c2cccc(CO)c2)nc1-c1nc(C2CNCCO2)n[nH]1` (stereo not drawn) [Example 703, {3-[5-amino-6-(3-morpholin-2-yl-1H-1,2,4-triazol-5-yl)pyrazin-2-yl]phenyl}methanol], the IC50 lay within 0.05 to 1 µM.

Consider `Nc1ncc(-c2cccc(CN[C@H]3CCc4ccccc43)c2)nc1-c1nc([C@H]2CCCNC2)n[nH]1` [Example 704, 5-(3-{[(1S)-2,3-dihydro-1H-inden-1-ylamino]methyl}phenyl)-3-{3-[(3S)-piperidin-3-yl]-1H-1,2,4-triazol-5-yl}pyrazin-2-amine], for which the half-maximal inhibitory concentration (IC50) is below 0.05 µM.

With `Nc1ncc(-c2cccc(CN[C@H]3CCc4ccccc43)c2)nc1-c1nc([C@@H]2CCCNC2)n[nH]1` [Example 705, 5-(3-{[(1S)-2,3-dihydro-1H-inden-1-ylamino]methyl}phenyl)-3-{3-[(3R)-piperidin-3-yl]-1H-1,2,4-triazol-5-yl}pyrazin-2-amine], the half-maximal inhibitory concentration (IC50) is below 0.05 µM.

As to `CCN1CC[C@H](NC(=O)c2nc(-c3cccc(C(=O)N[C@H]4CCc5ccccc54)c3)cnc2N)C1` [Example 706, 3-amino-6-(3-{[(1S)-2,3-dihydro-1H-inden-1-ylamino]carbonyl}phenyl)-N-[(3S)-1-ethylpyrrolidin-3-yl]pyrazine-2-carboxamide], the IC50 was in the range of 0.05 to 1 µM.

On to `CCNc1ncc(-c2cccc(C(=O)N[C@H]3CCc4ccccc43)c2)nc1C(=O)N[C@H]1CCN(CC)C1` [Example 707, 6-(3-{[(1S)-2,3-dihydro-1H-inden-1-ylamino]carbonyl}phenyl)-3-(ethylamino)-N-[(3S)-1-ethylpyrrolidin-3-yl]pyrazine-2-carboxamide], for which the IC50 was at least 10 µM.

As for `Nc1ncc(-c2cccc(C(=O)N[C@H]3c4ccccc4C[C@H]3O)c2)nc1C(=O)N[C@H]1CCNC1` [Example 708, 3-amino-6-[3-({[(1S,2R)-2-hydroxy-2,3-dihydro-1H-inden-1-yl]amino}carbonyl)phenyl]-N-[(3S)-pyrrolidin-3-yl]pyrazine-2-carboxamide], the half-maximal inhibitory concentration (IC50) lay within 0.05 to 1 µM.

Turning to `CC(C)(C)OC(=O)N1CC[C@H](NC(=O)c2nc(-c3cccc(C(=O)N[C@H]4CCc5ccccc54)c3)cnc2N)C1` [Example 709, 1,1-dimethylethyl (3S)-3-({[3-amino-6-(3-{[(1S)-2,3-dihydro-1H-inden-1-ylamino]carbonyl}phenyl)pyrazin-2-yl]carbonyl}amino)pyrrolidine-1-carboxylate], the IC50 is at least 10 µM.

As for `C[C@@H](NC(=O)c1cccc(-c2cnc(N)c(C(=O)N[C@H]3CCN(C(=O)OC(C)(C)C)C3)n2)c1)c1ccccc1` [Example 710, 1,1-dimethylethyl (3S)-3-[({3-amino-6-[3-({[(1R)-1-phenylethyl]amino}carbonyl)phenyl]pyrazin-2-yl}carbonyl)amino]pyrrolidine-1-carboxylate], the IC50 is at least 10 µM.

On to `CC(C)(C)OC(=O)N1CC[C@H](NC(=O)c2nc(-c3cccc(C(=O)N4CCc5ccccc5C4)c3)cnc2N)C1` [Example 711, 1,1-dimethylethyl (3S)-3-[({3-amino-6-[3-(3,4-dihydroisoquinolin-2(1H)-ylcarbonyl)phenyl]pyrazin-2-yl}carbonyl)amino]pyrrolidine-1-carboxylate], for which the IC50 was at least 10 µM.

For `CC(C)(C)OC(=O)N1CC[C@H](NC(=O)c2nc(-c3cccc(C(=O)NCCc4ccccc4)c3)cnc2N)C1` [Example 712, 1,1-dimethylethyl (3S)-3-({[3-amino-6-(3-{[(2-phenylethyl)amino]carbonyl}phenyl)pyrazin-2-yl]carbonyl}amino)pyrrolidine-1-carboxylate], the IC50 is at least 10 µM.

On to `C[C@H](NC(=O)c1cccc(-c2cnc(N)c(C(=O)N[C@H]3CCN(C(=O)OC(C)(C)C)C3)n2)c1)c1ccccc1` [Example 713, 1,1-dimethylethyl (3S)-3-[({3-amino-6-[3-({[(1S)-1-phenylethyl]amino}carbonyl)phenyl]pyrazin-2-yl}carbonyl)amino]pyrrolidine-1-carboxylate], for which the half-inhibitory concentration (IC50) was 1 to 10 µM.

`Nc1ncc(-c2cccc(C(=O)N3CCc4ccccc4C3)c2)nc1C(=O)N[C@H]1CCNC1` [Example 714, 3-amino-6-[3-(3,4-dihydroisoquinolin-2(1H)-ylcarbonyl)phenyl]-N-[(3S)-pyrrolidin-3-yl]pyrazine-2-carboxamide]: the half-inhibitory concentration (IC50) was in the range of 0.05 to 1 µM.

With `Nc1ncc(-c2cccc(C(=O)NCCc3ccccc3)c2)nc1C(=O)N[C@H]1CCNC1` [Example 715, 3-amino-6-(3-{[(2-phenylethyl)amino]carbonyl}phenyl)-N-[(3S)-pyrrolidin-3-yl]pyrazine-2-carboxamide], the concentration for half-maximal inhibition (IC50) was 0.05 to 1 µM.

`C[C@H](NC(=O)c1cccc(-c2cnc(N)c(C(=O)N[C@H]3CCNC3)n2)c1)c1ccccc1` [Example 717, 3-amino-6-[3-({[(1S)-1-phenylethyl]amino}carbonyl)phenyl]-N-[(3S)-pyrrolidin-3-yl]pyrazine-2-carboxamide]: the IC50 is 0.05 to 1 µM.

Regarding `CCNNC(=N)c1nc(-c2cccc(C(=O)NC3CCc4ccccc43)c2)cnc1N` (stereo not drawn) [Example 718, 3-{5-amino-6-[(2-ethylhydrazino)(imino)methyl]pyrazin-2-yl}-N-(2,3-dihydro-1H-inden-1-yl)benzamide], the IC50 was in the range of 1 to 10 µM.

On to `CNNC(=N)c1nc(-c2cccc(C(=O)N[C@H]3CCc4ccccc43)c2)cnc1N` [Example 719, 3-{5-amino-6-[imino(2-methylhydrazino)methyl]pyrazin-2-yl}-N-[(1S)-2,3-dihydro-1H-inden-1-yl)benzamide], for which the half-inhibitory concentration (IC50) lay in the range of 1 to 10 µM.

In the case of `Cn1nc(-c2nc(-c3cccc(C(=O)N[C@H]4CCc5ccccc54)c3)cnc2N)nc1C1CCCN(C(=O)OCc2ccccc2)C1` (stereo partly drawn) [Example 721, phenylmethyl 3-{3-[3-amino-6-(3-{[(1S)-2,3-dihydro-1H-inden-1-ylamino]carbonyl}phenyl)pyrazin-2-yl]-1-methyl-1H-1,2,4-triazol-5-yl}piperidine-1-carboxylate], the IC50 was at least 10 µM.

As for `CCn1nc(-c2nc(-c3cccc(C(=O)N[C@H]4CCc5ccccc54)c3)cnc2N)nc1C1CCCN(C(=O)OCc2ccccc2)C1` (stereo partly drawn) [Example 722, phenylmethyl 3-{3-[3-amino-6-(3-{[(1S)-2,3-dihydro-1H-inden-1-ylamino]carbonyl}phenyl)pyrazin-2-yl]-1-ethyl-1H-1,2,4-triazol-5-yl}piperidine-1-carboxylate], the IC50 is at least 10 µM.

For `Nc1ncc(-c2cccc(CN[C@H]3CCc4ccccc43)c2)nc1-c1nc(-c2ccncc2)n[nH]1` [Example 723, 5-(3-{[(1S)-2,3-dihydro-1H-inden-1-ylamino]methyl}phenyl)-3-(3-pyridin-4-yl-1H-1,2,4-triazol-5-yl)pyrazin-2-amine], the 50% inhibitory concentration (IC50) is below 0.05 µM.

Take `Nc1ncc(-c2cccc(CO)c2)nc1-c1nc([C@@H]2CCCNC2)n[nH]1` [Example 724, [3-(5-amino-6{3-[(3R)-piperidin-3-yl]-1H-1,2,4-triazol-5-yl}pyrazin-2-yl)phenyl]methanol]: the IC50 fell in the range of 0.05 to 1 µM.

In the case of `Nc1ncc(-c2cccc(CO)c2)nc1-c1nc([C@H]2CCCNC2)n[nH]1` [Example 725, [3-(5-amino-6-{3[(3S)-piperidin-3-yl]-1H-1,2,4-triazol-5-yl}pyrazin-2-yl)phenyl]methanol], the half-maximal inhibitory concentration (IC50) lay in the range of 0.05 to 1 µM.

As to `Nc1ncc(-c2cccc(C(=O)N[C@@H]3c4ccccc4C[C@@H]3O)c2)nc1C(=O)N[C@H]1CCNC1` [Example 726, 3-amino-6-[3-({[(1R,2S)-2-hydroxy-2,3-dihydro-1H-inden-1-yl]amino}carbonyl)phenyl]-N-[(3S)-pyrrolidin-3-yl]pyrazine-2-carboxamide], the concentration for half-maximal inhibition (IC50) is below 0.05 µM.

As to `CCN1CC[C@H](NC(=O)c2nc(-c3cccc(C(=O)N[C@H]4c5ccccc5C[C@H]4O)c3)cnc2N)C1` [Example 727, 3-amino-N-[(3S)-1-ethylpyrrolidin-3-yl]-6-[3-({[(1S,2R)-2-hydroxy-2,3-dihydro-1H-inden-1-yl]amino}carbonyl)phenyl]pyrazine-2-carboxamide], the IC50 lay in the range of 1 to 10 µM.

Regarding `CC(C)(C)OC(=O)N1CCCC(NC(=O)c2nc(-c3cccc(C(=O)N[C@H]4CCc5ccccc54)c3)cnc2N)C1` (stereo partly drawn) [Example 728, 1,1-dimethylethyl 3-({[3-amino-6-(3-{[(1S)-2,3-dihydro-1H-inden-1-ylamino]carbonyl}phenyl)pyrazin-2-yl]carbonyl}amino)piperidine-1-carboxylate], the 50% inhibitory concentration (IC50) was at least 10 µM.

With `Nc1ncc(-c2cccc(C(=O)N[C@H]3CCc4ccccc43)c2)nc1C(=O)NC1CCCNC1` (stereo partly drawn) [Example 729, 3-amino-6-(3-{[(1S)-2,3-dihydro-1H-inden-1-ylamino]carbonyl}phenyl)-N-piperidin-3-ylpyrazine-2-carboxamide], the half-maximal inhibitory concentration (IC50) was below 0.05 µM.

On to `CCN1CCCC(NC(=O)c2nc(-c3cccc(C(=O)N[C@H]4CCc5ccccc54)c3)cnc2N)C1` (stereo partly drawn) [Example 730, 3-amino-6-(3-{[(1S)-2,3-dihydro-1H-inden-1-ylamino]carbonyl}phenyl)-N-(1-ethylpiperidin-3-yl)pyrazine-2-carboxamide], for which the IC50 lay within 0.05 to 1 µM.
